Test [1] has as its target T1, human Kv7.2+3 (Homo sapiens, UniProt O43525+O43526).
T1 construct: expressed in transfected cells; host or cells: HEK293
The experiment in a line: Patch-clamp on HEK293 cell lines stably expressing human Kv7.2+3 channels. Type of test: cell-based. The following applies: current relative to baseline current defined as 100%. From the text: The effect obtained by these channel activators is described as a percentage increase in baseline current at a given concentration. The baseline current is defined as 100%, and an increase in current is expressed relative to this, i.e. an increase from 1 nA to 1.2 nA is reported as 120%.

The target in test [2] is T1, human Kv7.2+3. The experiment in a line: FLIPR-based thallium (I) influx characterization of Kv7.2+3 modulators. Type of test: cell-based. The settings on record: for EC50: HEK293 cells over-expressing human Kv7.2+3, Tl+ influx, BTC-AM, 50% of channel activity compared to retigabine control responses; for Efficacy: maximal response relative to the reference (retigabine) response. As to the method: This experiment determines the ability of a test compound to modulate the activity of Kv7.2+3 channels heterologously expressed in human HEK293 cells. The ability is determined relative to retigabine. The activity is determined using a standard thallium (I) sensitive assay, e.g. using a fluorometric method in a Fluorescent Image Plate Reader (FLIPR) as described below in more detail.
Full concentration/response curves are generated and EC50 values are calculated based on max values. EC50 values (Effective Concentration) represent the concentration of the test substance, at which 50% of the channel activity is obtained when compared to retigabine control responses. Maximal response determined relative to the reference (retigabine) response is calculated.
Human HEK293 cells over-expressing human Kv7.2+3 are grown in culture medium (DMEM supplemented with 10% foetal bovine serum), in polystyrene culture flasks ([…]) in a humidified atmosphere of 5% CO2 in air, at 37° C. Cell confluence should be 80-90% on day of plating. Cells are rinsed with 4 ml of PBS (phosphate buffered saline) and incubated 2 min with 1 ml of Trypsin-EDTA. After addition of 25 ml of culture medium cells are re-suspended by trituration with a 25 ml pipette.
The cells are seeded at a density of ˜3×10^6 cells/ml (25 μl/well) in blackwalled, clear bottom, 384-well plates pre-treated with 0.01 g/l poly-D-lysin (20 μl/well for ≧30 min). Plated cells were allowed to proliferate for 24 h before loading with dye.
BTC-AM (50 mg, Invitrogen) is added 25.5 μl DMSO. The BTC-AM stock solution (2 mM) is diluted to a final concentration of 2 μM in Cl^− free assay buffer (in mM: 140 Na^−-gluconate, 2.5 K^+-gluconate, 6 Ca2^+-gluconate, 1 Mg^2+ gluconate, 5 glucose, 10 HEPES, pH 7.3) containing 2 μM ouabain, 2 mM amaranth and 1 mM tartrazine. […]
After the loading period, the Tl^+-sensitive BTC fluorescence signal is measured over time using a FLIPR.
• Temperature: Room temp. • First addition: 12 μl test or control compound after 15 sec at a rate of 30 μl/sec and starting height of 20 μl • Second addition: 12 μl stimulus buffer (Cl^− free assay buffer supplemented with 1 mM Tl2SO4, 5 mM K2SO4 as well as the quenchers amaranth (2 mM) and tartrazine (1 mM)) is added after an additional 3 minutes at a rate of 30 μl/sec and starting height of 30 μl • Reading intervals: First sequence—3 sec×5, 2 sec×24 and 5 sec×25 • Second sequence—1 sec×5, 2 sec×24 and 5 sec×36 Addition plates (compound plate and stimulus plate) are placed in positions 2 and 3, respectively. […] Fluorescence obtained after stimulation is corrected for the mean basal fluorescence (in Cl^− free assay buffer). […]

The structures appear in SMILES notation.

The EC50 is the concentration needed to bring the measured effect to its halfway point. A lower EC50 goes with an effect from little substance. With `Cc1ccoc1C(=O)Nc1c(C)cc(N2CCCOCC2)nc1N1CC[C@@H](F)C1` [Compound 1.1, 3-Methyl-furan-2-carboxylic acid [2-((R)-3-fluoro-pyrrolidin-1-yl)-4-methyl-6-[1,4]oxazepan-4-yl-pyridin-3-yl]-amide], the “IK (%) conc. 0.3 μM, −30 mV, 20 ms” value at human Kv7.2+3 [1] is 293 (n = 2) %. Also, at human Kv7.2+3 [2], the response was half-maximal at 1200 nM (EC50) and the Efficacy is on record as 98%.

Regarding `Cc1ccoc1C(=O)Nc1c(C)cc(N2CCOCC2)nc1N1CC[C@@H](F)C1` [Compound 1.2, 3-Methyl-furan-2-carboxylic acid [2-((R)-3-fluoro-pyrrolidin-1-yl)-4-methyl-6-morpholin-4-yl-pyridin-3-yl]-amide], the “IK (%) conc. 0.03 μM, −30 mV, 20 ms” value on human Kv7.2+3 [1] (0.03 μM) came out at 136%. Further, the “IK (%) conc. 0.3 μM, −30 mV, 20 ms” value at human Kv7.2+3 [1] is 428 (n = 5) %. On human Kv7.2+3 [2], this compound registered a half-maximal effective concentration (EC50) of 190 nM and an Efficacy of 98%.

The values above are taken from patent US20120238547A1, “2, 3, 6 - TRIAMINO SUBSTITUTED PYRIDINES AS KV7 (KCNQ) CHANNEL MODULATORS” (NEUROSEARCH A/S, priority 2009, published 2012).
